Measured values published in US9834514B2, “Antibiotic sensitivity-restoring and photosensitive agents” (New Mexico Tech Research Foundation, priority 2015, dated 2017).
Values after ≈ are worked out from the molar mass of the structure shown.

Tests used:
[1] = test system: efflux pumps of MRSA; assay: Fluorescent competition assay of compound 1 versus INF-55 and reserpine; assay type: binding; details: compound 1 at 5 μM
Method: INF-55 and reserpine, NorA EPIs, were used to compete with compound 1 for binding sites on MRSA. Since compound 1 is highly fluorescent, binding could be assessed by measuring the fluorescence at excitation wavelengths of 345 nm, 380 nm, 407 nm, and an emission wavelength of 508 nm. Fluorescent readings were taken every minute for 30 minutes at a lamp energy of 20,000 CW. MRSA cells (about 10^8 CFU/mL) were pelleted at 7500 rpm and resuspended in 1×PBS. The MRSA cells were then pretreated with the appropriate EPI at varying concentrations and incubated for 30 minutes at 37° C. at 150 rpm on a rotary shaker.
INF-55 (FIG. 2) and reserpine (FIG. 3) were added at 1 μM, 10 μM, 50 μM, and 100 μM. After incubation with the appropriate EPI, compound 1 was added at 5 μM and the samples were incubated for 10 minutes. The samples were then placed in a fluorescent plate reader for analysis. The controls used were as follows: 1×PBS, compound 1 (5 μM) in 1×PBS, each respective concentration of the EPI in 1×PBS, compound 1 (5 μM) added to MRSA cells, and each respective EPI added to MRSA cells. The instrument baseline fluorescence drift was corrected by subtracting the fluorescence measured at each time point for the 1×PBS control sample. The error bars represent data from three independent measurements.

[2] = test system: S. pyogenes (ATCC No. 8133); assay: Light-activated killing, colony counts; assay type: cell-based; details: for Dark Toxicity: no light; for Light Toxicity: white light 2 minutes
Method: Dose-dependent effects of treating bacteria with compound 1 and irradiation with white light were assessed by treating 10^8 CFU/mL of cells with compound 1, followed by irradiation with white light for 2 minutes. Compound 1 was added at a specific concentration to 1 mL of a 10^8 CFU/mL suspension of the respective bacterial cells, and the cells were incubated at 37° C. for approximately 45 minutes on a rotary shaker at 150 rpm. 0.5 mL of the cell suspension was removed and placed into the wells of a sterile ceramic drop plate, and then the cells were irradiated with white light from a Lumacare™ LC 122A light source for 2 minutes at a distance of approximately 3 cm. The time and distance of the light application delivered about 85 J/cm^2 of 400-700 nm light to the sample. After being irradiated, ten-fold dilutions were made of each cell sample. The dilutions were drip-streaked onto a tryptic soy agar (TSA) plate and incubated at 37° C. for 18-24 hours. Enumeration of bacteria was determined from the dilution, which produced a drip-streak containing approximately 30-300 colonies. After counting the colonies, the CFU/mL was calculated by applying the respective dilution factor and a factor of 100 to account for the 10 μL of sample taken. Appropriate controls were prepared, including cells with no treatment, cells with only compound 1 added, and cells only treated with light.
(§1) The error bars in FIG. 12 represent the variations between three replicate determinations.

[3] = test system: S. pyogenes (ATCC No. 8133); assay: MIC against S. pyogenes; assay type: cell-based; details: Streptococcus pyogenes, ATCC8133; compound alone
Excerpt: as §1

[4] = test system: MRSA; assay: Checkerboard assay (FICI); assay type: cell-based, S. aureus
Method: Another method for determining synergy is a checkerboard assay. A checkerboard assay is performed whereby one of the test compounds is serially diluted horizontally across a plate, while the other test compound is serially diluted vertically down the plate. The perpendicular serial dilutions result in combinations of the compounds that range in concentrations from the highest to the lowest of each compound added. In the present study, the checkerboard assay method was adjusted by serially diluting one of the test compounds horizontally and adding the second drug to each well at a concentration of ¼ MIC. The 24-well microtiter plate was then incubated at 37° C. for 18-24 hours on a rotary shaker incubator at 150 rpm. After incubation, MTT reagent was added to each well at a 10% sample volume. Synergy was determined on the lowest concentration of the combined drugs, which produced no purple coloring. Calculation of synergy was determined by the Fractional Inhibitory Concentration Index (FICI): FICI=([Drug 1]Synergy/[Drug1]MIC)+([Drug 2]Synergy/[Drug 2]MIC). FICI≦0.5 is an indication of synergy.
TABLE 17 details the obtained FICI values for compound 1 in combination with varying antibiotics against MRSA, A. baumannii, and E. coli.

[5] = test system: E. coli; assay: Treatment with compound 1 and PMB at fixed concentrations, with and without white light; assay type: cell-based
Excerpt: FIG. 54 is an example of the treatment of E. coli with compound 1 and PMB at fixed concentrations with and without irradiation using white light (λ).

[6] = test system: MRSA (ATCC No. BAA-44); assay: Potentiation of antibiotic activity with 10 μM compound 1 (CFU/mL); assay type: cell-based, S. aureus
Method: The MICs for the antibiotics in the absence of compound 1 were calculated by adjusting the cells to 5×10^5 CFU/mL with McFarland Turbidity Standard (0.5) followed by the addition of an antibiotic. The cells were then incubated at 37° C. for 18 hours on a rotary shaking incubator at 100 rpm. Finally, MTT was added to the cells to assess viability.
To assess the potentiation of antibiotic activity, the cells were adjusted to 5×10^5 CFU/mL with McFarland Turbidity Standard (0.5). Compound 1 was then added at 10 μM, and the cells were incubated at 37° C. for 45 minutes. The desired antibiotic was then added at three sub-inhibitory concentrations, and the cells were incubated at 37° C. for 18 hours on a rotary shaking incubator at 100 rpm. The samples were then diluted ten-fold, drip streaked onto a TSA plate, and incubated for 18 hours at 37° C. The resulting cell colonies were counted, and the CFU/mL values were calculated.

[7] = test system: E. coli; assay: Resensitization to antibiotics (log reduction, TABLE 29); assay type: cell-based; details: compound 1 μM
[8] = test system: S. aureus ATCC 29213; assay: as above; assay type: cell-based
[9] = Stability of the formulation at 40° C. (dynamic light scattering); assay type: physicochemical; details: in DMSO
Method: The stability of the formulation was determined using dynamic light scattering (DLS) to measure the mean size and standard deviation, both of which remained consistent. The experiments were repeated after the indicated periods, and the outcome of compound 1 photodynamic therapy was essentially the same in terms of cell killing.

Compound: Clc1ccc(/C=C/c2[nH]c3ccccc3c2/C=C/c2ccc(Cl)cc2)cc1 [Compound 1]
- competition with INF-55 for binding (fluorescence) ([1]; INF-55 1-100 μM, FIG. 2): able to compete with INF-55 for binding to the efflux pumps of MRSA
- competition with reserpine for binding (fluorescence) ([1]; reserpine 1-100 μM, FIG. 3): able to compete with reserpine for binding to the efflux pumps of MRSA
- Dark Toxicity ([2]; 0.1 μM): 7.13 × 10^6 ± 1.10 × 10^6 CFU/mL
- Light Toxicity ([2]; 0.1 μM): None Detected (<100 CFU/mL)
- Dark Toxicity ([2]; 0.5 μM): 1.40 × 10^6 ± 7.05 × 10^5 CFU/mL
- Light Toxicity ([2]; 0.5 μM): None Detected (<100 CFU/mL)
- Dark Toxicity ([2]; 1.0 μM): 4.13 × 10^6 ± 9.07 × 10^5 CFU/mL
- Light Toxicity ([2]; 1.0 μM): None Detected (<100 CFU/mL)
- Dark Toxicity ([2]; 5.0 μM): 5.01 × 10^5 ± 4.07 × 10^5 CFU/mL
- Light Toxicity ([2]; 5.0 μM): None Detected (<100 CFU/mL)
- MIC [3]: 100 µM (≈ 39 µg/mL)
- FIC Index ([4]; with Amoxicillin): 0.3
- FIC Index ([4]; with Ampicillin): 0.13
- FIC Index ([4]; with Dicloxicillin): 0.04
- FIC Index ([4]; with Norfloxacin): 0.3
- FIC Index ([4]; with Tetracycline): 0.4
- cell killing with compound 1, PMB and white light ([5]; FIG. 54): PMB was more efficacious in cell killing when co-administered with compound 1 and light
- killing by combination of compound 1 and PMB (CFU) ([5]; compared to either agent alone, FIG. 17): effective at killing E. coli
- potentiation of tetracycline (CFU/mL) ([6]; FIG. 18): tetracycline was more efficacious in cell killing in the presence of compound 1
- potentiation of doxycycline (CFU/mL) ([6]; FIG. 19): doxycycline was more efficacious in cell killing in the presence of compound 1
- potentiation of norfloxacin (CFU/mL) ([6]; FIG. 20): norfloxacin was more efficacious in cell killing in the presence of compound 1
- potentiation of dicloxicillin (CFU/mL) ([6]; FIG. 21): dicloxicillin was more efficacious in cell killing in the presence of compound 1
- potentiation of oxacillin (CFU/mL) ([6]; FIG. 22): oxacillin was more efficacious in cell killing in the presence of compound 1
- potentiation of penicillin G (CFU/mL) ([6]; FIG. 23): penicillin G was more efficacious in cell killing in the presence of compound 1
- potentiation of tobramycin (CFU/mL) ([6]; FIG. 24): tobramycin was more efficacious in cell killing in the presence of compound 1
- potentiation of vancomycin (CFU/mL) ([6]; FIG. 25): vancomycin was more efficacious in cell killing in the presence of compound 1
- Log Reduction ([7]; PMB (0.1 μg/mL)): 4
- Log Reduction ([7]; PMB (0.1 μg/mL) + Light (2 min)): 7
- Log Reduction ([8]; compound 1 μM, Light (2 min)): 6
- Log Reduction ([8]; compound 5 μM, Norfloxacin (0.5 μg/mL)): 6
- Log Reduction ([8]; compound 5 μM, Tetracycline (0.1 μg/mL)): 5
- Stability at 40° C. [9]: >2 months
